Measurements as given in patent US7989464B2, “mGluR1 antagonists as therapeutic agents” (Schering Corporation, priority 2004, dated 2011).
Read-outs that look alike come from different tables or passages of the source.

Biological target: T1, hmGluR1 receptor (Homo sapiens, UniProt Q13255)
T1 construct: expressed in transfected cells
Assay: IC50 determination: intracellular calcium mobilization (FLIPR) upon Quisqualate stimulation in CHO cells stably expressing hmGluR1
Type: cell-based
Conditions: against Quisqualate 1 μM (EC80)
Method in brief: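 CHO cells stably expressing hmGluR1 were kept overnight in DMEM high glucose with GPT and 1 mM pyruvate, then loaded 2 h with Calcium 3 dye.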

[1] = class symbols, read-out: mGIuR 1 IC50
[2] = FLIPR calcium mobilization, read-out: IC50 Class
[3] = FLIPR calcium mobilization, read-out: mGluR1 IC50

T1 sequence (Q13255 19-1194): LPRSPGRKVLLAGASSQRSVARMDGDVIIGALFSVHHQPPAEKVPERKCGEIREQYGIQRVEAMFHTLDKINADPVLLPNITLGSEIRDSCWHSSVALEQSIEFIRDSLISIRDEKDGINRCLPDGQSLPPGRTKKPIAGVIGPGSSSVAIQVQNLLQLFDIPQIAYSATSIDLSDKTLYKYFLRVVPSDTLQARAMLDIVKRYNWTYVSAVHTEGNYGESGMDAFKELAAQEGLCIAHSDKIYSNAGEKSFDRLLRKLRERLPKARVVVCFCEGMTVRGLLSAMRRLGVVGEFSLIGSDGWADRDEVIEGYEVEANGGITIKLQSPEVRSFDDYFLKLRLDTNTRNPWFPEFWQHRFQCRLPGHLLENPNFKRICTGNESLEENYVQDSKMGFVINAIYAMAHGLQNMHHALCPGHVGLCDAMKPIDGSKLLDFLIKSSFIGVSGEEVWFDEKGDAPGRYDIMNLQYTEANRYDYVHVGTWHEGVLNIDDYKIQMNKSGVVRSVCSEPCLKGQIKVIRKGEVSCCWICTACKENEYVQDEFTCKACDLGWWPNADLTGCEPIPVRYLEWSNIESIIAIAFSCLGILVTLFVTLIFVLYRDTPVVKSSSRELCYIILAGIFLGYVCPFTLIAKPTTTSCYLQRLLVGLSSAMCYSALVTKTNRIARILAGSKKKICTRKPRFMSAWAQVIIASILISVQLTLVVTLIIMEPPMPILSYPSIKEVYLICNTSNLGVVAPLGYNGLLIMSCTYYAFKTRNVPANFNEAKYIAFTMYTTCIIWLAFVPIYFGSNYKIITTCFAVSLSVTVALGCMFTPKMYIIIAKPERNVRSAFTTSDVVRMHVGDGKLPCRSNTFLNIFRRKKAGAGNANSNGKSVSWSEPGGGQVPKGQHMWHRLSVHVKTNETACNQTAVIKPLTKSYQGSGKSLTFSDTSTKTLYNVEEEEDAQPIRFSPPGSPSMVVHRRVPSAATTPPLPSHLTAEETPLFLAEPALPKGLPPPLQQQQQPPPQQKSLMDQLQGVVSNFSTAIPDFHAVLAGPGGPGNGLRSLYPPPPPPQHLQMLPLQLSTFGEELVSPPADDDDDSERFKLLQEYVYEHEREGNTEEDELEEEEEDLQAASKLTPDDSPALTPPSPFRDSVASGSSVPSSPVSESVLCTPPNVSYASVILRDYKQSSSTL

| SMILES | IC50 [1] [nM] | IC50 [2] [nM] | other results |
| --- | --- | --- | --- |
| Cc1ccc(-n2cnc3c(sc4nccc(C(=O)O)c43)c2=O)cc1 [compound 77] | > 1000 |  |  |
| Cc1ccc(-n2cnc3c(sc4cnnc(NCCCO)c43)c2=O)cc1 [167F] |  | > 1000 |  |
| CC(=O)c1c(C)nc2sc3c(=O)n(-c4ccc(C)cc4)cnc3c2c1-c1ccc(Cl)cc1 [P-8] | 150 to 1000 |  |  |
| C#CCNc1ncnc2sc3c(=O)n(-c4ccc5c(c4)OCO5)cnc3c12 [95EO] |  | 50 to 150 |  |
| O=c1c2sc3nccc(NCCCO)c3c2ncn1-c1ccc(F)cc1 [28GP] |  | < 50 |  |
| Cc1ccc(-n2cnc3c(sc4ncnc(NC5CCC5)c43)c2=O)cc1 [95DH] |  | 150 to 1000 |  |
| Cc1ccc(-n2c(C)nc3c(sc4nccc(NCC(F)(F)F)c43)c2=O)cc1 [113L] | 150 to 1000 |  |  |
| CNc1ccnc2sc3c(=O)n(-c4ccc(C)cc4)cnc3c12 [28AI] | < 50 |  | IC50 [3]: 1.27 nM |
| CC(C)Nc1ccnc2sc3c(=O)n(C4CCCCC4)cnc3c12 [28AH] | 150 to 1000 |  |  |
| CC(=O)Nn1c(C)nc2c(sc3nccc(N(C)C)c32)c1=O [65A] | > 1000 |  |  |
| C=C(C)CNc1ncnc2sc3c(=O)n(-c4ccncc4)cnc3c12 [95FJ] |  | 150 to 1000 |  |
| O=c1c2sc3nccc(Nc4ccccc4)c3c2ncn1C1CCCCC1 [28H] | > 1000 |  |  |
| COCCn1cnc2c(sc3ncnc(N(C)C)c32)c1=O [95EA] |  | > 1000 |  |
| COc1ccc(-n2cnc3c(sc4nccc(N(C)N)c43)c2=O)cc1 [28DO] |  | < 50 |  |
| COc1ccc(-n2cnc3c(sc4nccc(NC5CC5)c43)c2=O)cc1 [28AL] | < 50 |  |  |
| CN(C)c1cccc2sc3c(=O)n(-c4ccc(F)c(F)c4)cnc3c12 [103P] |  | 150 to 1000 |  |
| C#CCNc1ccnc2sc3c(=O)n(-c4ccc(Cl)cc4)cnc3c12 [28DL] |  | < 50 | IC50 [3]: 0.91 nM |
| CN(C)c1ccnc2sc3c(=O)n(-c4cccc(Cl)c4)cnc3c12 [7L] | < 50 |  |  |
| CN(C)c1ccnc2sc3c(=O)n(C4CCC4)cnc3c12 [15J] | 50 to 150 |  |  |
| COc1ccc(-n2cnc3c(sc4nccc(NCCC(C)O)c43)c2=O)cc1 (centres unmarked) [28HP] |  | < 50 |  |
| COc1ccc(-n2cnc3c(sc4ncnc(Nc5ccc(Cl)cc5)c43)c2=O)cc1 [190E] |  | 150 to 1000 |  |
| CN(C)c1ccnc2sc3c(=O)n(-c4ccc(Br)c(C(F)(F)F)c4)cnc3c12 [7DS] | 150 to 1000 |  |  |

| SMILES | IC50 [1] [nM] | IC50 [2] [nM] | other results |
| --- | --- | --- | --- |
| CN(CCO)c1ccnc2sc3c(=O)n(-c4ccc(Br)cc4)cnc3c12 [28HI] |  | < 50 |  |
| COc1ccnc2sc3c(=O)n(-c4ccc(Cl)cc4C)cnc3c12 [28FU] |  | > 1000 |  |
| CN(C)c1ccnc2sc3c(=O)n(NC(=O)C(F)(F)F)c(C(F)(F)F)nc3c12 [65B] | > 1000 |  |  |
| CCN(C)c1ncnc2sc3c(=O)n(-c4ccc(C)nc4)cnc3c12 [95U] | < 50 |  |  |
| COCCNc1ccnc2sc3c(=O)n(-c4ccc(Cl)cc4)cnc3c12 [28GK] |  | < 50 |  |
| CCNc1ccnc2sc3c(=O)n(-c4ccc5ncsc5c4)cnc3c12 [131C] | < 50 |  |  |
| Cc1ccc(-n2cnc3c(sc4nccc(NC5CC5)c43)c2=O)c(F)c1 [131M] |  | 50 to 150 |  |
| CN(C)c1c(-c2ccc(F)cc2)cnc2sc3c(=O)n(C4CCCCC4)cnc3c12 [47B] | > 1000 |  |  |
| CN(C)c1ccnc2sc3c(=O)n(-c4ccc5c(c4)oc(=O)n5C)cnc3c12 [7AR] | > 1000 |  |  |
| C=CCNc1ccnc2sc3c(=O)n(-c4ccc(C)cc4)cnc3c12 [72I] | < 50 |  |  |
| CNc1ccnc2sc3c(=O)n(-c4ccccc4)c(C)nc3c12 [113E] | < 50 |  |  |
| COCC(C)Nc1ccnc2sc3c(=O)n(-c4ccc(Br)cc4)cnc3c12 (centres unmarked) [28HA] |  | 150 to 1000 |  |
| CNc1c([N+](=O)[O-])cnc2sc3c(=O)n(C4CCCCC4)cnc3c12 [compound 52] | 150 to 1000 |  |  |
| C=C(C)CNc1ncnc2sc3c(=O)n(-c4ccc(F)cc4)cnc3c12 [95FI] |  | < 50 |  |
| Nc1c([N+](=O)[O-])cnc2sc3c(=O)n(C4CCCCC4)cnc3c12 [compound 174] |  | 150 to 1000 |  |
| CC(C)Nc1ccnc2sc3c(=O)n(-c4ccc(Br)cc4)cnc3c12 [28HD] |  | 150 to 1000 |  |
| C#CC(C)Nc1ccnc2sc3c(=O)n(-c4ccc(C)cc4)cnc3c12 (centres unmarked) [28EZ] |  | 150 to 1000 |  |
| CN(C)c1ccnc2sc3c(=O)n(C4CCCc5ccccc54)cnc3c12 (centres unmarked) [7AI] | 150 to 1000 |  |  |
| O=c1c2sc3nccc(N4CCNCC4)c3c2ncn1C1CCCCC1 [28U] | > 1000 |  |  |
| Cc1ccc(F)c(-n2cnc3c(sc4nccc(N(C)C)c43)c2=O)c1 [7DZ] | < 50 |  |  |
| Cc1nc2c(sc3nccc(NC4CC4)c32)c(=O)n1-c1ccccc1 [113C] | 150 to 1000 |  |  |
| CN(C)c1ccnc2sc3c(=O)n(-c4ccc5c(c4)OCCCO5)cnc3c12 [7CH] | 150 to 1000 |  |  |

| SMILES | IC50 [1] [nM] | IC50 [2] [nM] | other results |
| --- | --- | --- | --- |
| Cc1ccc(-n2cnc3c(sc4nccc(NC5CCC5)c43)c2=O)cc1 [28DA] |  | 150 to 1000 |  |
| Cc1cc(N(C)C)c2c(n1)sc1c(=O)n(C3CCCCC3)cnc12 [7CZ] | < 50 |  |  |
| CCN(C)c1ccnc2sc3c(=O)n(-c4cccc(F)c4)cnc3c12 [28CM] |  | < 50 |  |
| C#CCNc1ncnc2sc3c(=O)n(-c4ccc(OC)cc4)cnc3c12 [95EI] |  | < 50 |  |
| O=c1c2sc3nccc(N4CCC[C@@H]4CO)c3c2ncn1-c1ccc(Cl)cc1 [28GI] |  | > 1000 |  |
| Cc1ccc(-n2cnc3c(sc4ncc(Br)c(NCCO)c43)c2=O)cc1 [28FN] |  | < 50 |  |
| COCCn1cnc2c(sc3nccc(N(C)C)c32)c1=O [15D] | > 1000 |  |  |
| COCCCNc1ccnc2sc3c(=O)n(-c4ccc(OC)cc4)cnc3c12 [28HL] |  | < 50 |  |
| CN(C)c1ccnc2sc3c(=O)n(C4CCOCC4)cnc3c12 [15E] | 50 to 150 |  |  |
| O=C(Nc1ccnc2sc3c(=O)n(C4CCCCC4)cnc3c12)c1ccc(Cl)cc1 [73G] | > 1000 |  |  |
| Cc1ccc(-n2cnc3c(sc4nc(C(C)C)cc(N(C)C)c43)c2=O)cc1 [87A] | 150 to 1000 |  |  |
| Cc1cc(-n2cnc3c(sc4nccc(N(C)C)c43)c2=O)no1 [15AE] | 50 to 150 |  |  |
| CNc1ccc(-n2cnc3c(sc4nccc(N(C)C)c43)c2=O)cc1 [7CF] | < 50 |  |  |
| Cc1ccc(-n2cnc3c(sc4ncc(Br)c(N)c43)c2=O)cc1 [173A] |  | < 50 |  |
| CN(C)c1ccnc2sc3c(=O)n(NC4CCCCC4)cnc3c12 [60G] | < 50 |  |  |
| CN(C)c1ccnc2sc3c(=O)n(CCc4c(Cl)cccc4Cl)cnc3c12 [28EN] |  | 150 to 1000 |  |
| CNc1ccnc2sc3c(=O)n(-c4ccncc4)cnc3c12 [28EF] |  | 150 to 1000 |  |
| O=c1c2sc3nccc(N4CCCC4)c3c2ncn1C1CCCCC1 [28A] | > 1000 |  |  |
| CCc1ccc(-n2cnc3c(sc4nccc(N(C)CC)c43)c2=O)cc1 [28BS] |  | < 50 |  |
| Cc1ccc(-n2cnc3c(sc4nccc(NC5CCC(O)CC5)c43)c2=O)cc1 (centres unmarked) [28DE] |  | 150 to 1000 |  |
| COc1ccc(-n2cnc3c(sc4nc(Cl)cc(N(C)C)c43)c2=O)cc1 [57C] |  | < 50 |  |
| CCNc1ccnc2sc3c(=O)n(-c4ccc5occc5c4)cnc3c12 [28BG] |  | < 50 |  |

| SMILES | IC50 [1] [nM] | IC50 [2] [nM] | other results |
| --- | --- | --- | --- |
| COc1ccc(-n2cnc3c(sc4ncc(Br)c(N)c43)c2=O)cc1 [173B] |  | < 50 |  |
| COc1ccc(-n2cnc3c(sc4nccc(Cl)c43)c2=O)cc1 [compound 195] |  | 150 to 1000 |  |
| CN(C)c1ccnc2sc3c(=O)n(C4CCCC4)cnc3c12 [7W] | < 50 |  |  |
| Cc1ccc(-n2cnc3c(sc4nccc(NCC(C)(C)C)c43)c2=O)cc1 [28ES] |  | > 1000 |  |
| CN(C)c1ncnc2sc3c(=O)n(-c4ccc(OC(F)F)cc4)cnc3c12 [95Q] | < 50 |  |  |
| C=C(C)CNc1ccnc2sc3c(=O)n(-c4ccc(OC)cc4)cnc3c12 [28FB] |  | < 50 |  |
| COCCNc1ccnc2sc3c(=O)n(-c4ccc(F)cc4)cnc3c12 [28GL] |  | < 50 |  |
| C#CCNc1ncnc2sc3c(=O)n(-c4ccc(C)cc4)cnc3c12 [95EH] |  | < 50 |  |
| CCN(C)c1ncnc2sc3c(=O)n(-c4ccc5ncsc5c4)cnc3c12 [95I] | < 50 |  |  |
| Cc1noc(-n2cnc3c(sc4nccc(N(C)C)c43)c2=O)c1C [15AD] | 50 to 150 |  |  |
| CN(C)c1ccnc2sc3c(=O)n(C4CCNCC4)cnc3c12 [15G] | > 1000 |  |  |
| C=C(C)CNc1ncnc2sc3c(=O)n(C4CCCC4)cnc3c12 [95FL] |  | < 50 |  |
| CCc1ncnc2sc3c(=O)n(-c4ccc(OC)cc4)cnc3c12 [compound 201] |  | < 50 |  |
| CN(C)c1ccnc2sc3c(=O)n(-c4csc5ccccc45)cnc3c12 [15AG] | < 50 |  |  |
| O=c1c2sc3nccc(NCCc4ccccc4)c3c2ncn1C1CCCCC1 [72F] | > 1000 |  |  |
| CN(C)c1cccc2sc3c(=O)n(-c4ccc5scnc5c4)cnc3c12 [103F] | 150 to 1000 |  |  |
| CC(O)CCNc1ccnc2sc3c(=O)n(-c4ccc(Cl)cc4)cnc3c12 (centres unmarked) [28HM] |  | < 50 |  |
| C=C(C)CNc1ccnc2sc3c(=O)n(-c4ccc5c(c4)OCCO5)cnc3c12 [28FF] |  | 150 to 1000 |  |
| CNc1ncnc2sc3c(=O)n(-c4ccc5scnc5c4)cnc3c12 [95BG] |  | < 50 |  |
| C#CCN(C)c1ccnc2sc3c(=O)n(-c4ccc(Br)cc4)cnc3c12 [28DV] |  | < 50 | IC50 [3]: 1.87 nM |
